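Test compounds were applied to cells in 96-well plates for 48 hours at 5 doses. The concentration for full growth arrest is given as TGI.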
Legend:
Assay in all cases: inhibition of tumour cell growth, NCI panel, 48 h
MCF7 breast = system: MCF7 breast
SK-MEL-2 melanoma = system: SK-MEL-2 melanoma
NCI-H460 lung = system: NCI-H460 lung
HCT-116 colon = system: HCT-116 colon
COLO 205 colon = system: COLO 205 colon
SF-295 CNS = system: SF-295 CNS
MDA-MB-231 breast = system: MDA-MB-231 breast
RPMI-8226 leukemia = system: RPMI-8226 leukemia
UACC-62 melanoma = system: UACC-62 melanoma
A498 renal = system: A498 renal
NCI-H23 lung = system: NCI-H23 lung
OVCAR-3 ovarian = system: OVCAR-3 ovarian
K-562 leukemia = system: K-562 leukemia
MDA-MB-435 = system: MDA-MB-435
UACC-257 melanoma = system: UACC-257 melanoma
SNB-19 CNS = system: SNB-19 CNS
TK-10 renal = system: TK-10 renal
NCI-H522 lung = system: NCI-H522 lung
CCRF-CEM leukemia = system: CCRF-CEM leukemia
MALME-3M melanoma = system: MALME-3M melanoma
OVCAR-5 ovarian = system: OVCAR-5 ovarian
ACHN renal = system: ACHN renal
HS 578T breast = system: HS 578T breast
HL-60(TB) leukemia = system: HL-60(TB) leukemia
T-47D breast = system: T-47D breast
LOX IMVI melanoma = system: LOX IMVI melanoma
RXF 393 renal = system: RXF 393 renal
HOP-62 NSCLC = system: HOP-62 NSCLC
EKVX NSCLC = system: EKVX NSCLC
MOLT-4 leukemia = system: MOLT-4 leukemia
NCI-H226 lung = system: NCI-H226 lung
U251 CNS = system: U251 CNS
KM12 colon = system: KM12 colon
SK-MEL-28 melanoma = system: SK-MEL-28 melanoma
MDA-N = system: MDA-N
HCT-15 colon = system: HCT-15 colon
A549 NSCLC = system: A549 NSCLC
PC-3 prostate = system: PC-3 prostate
UO-31 renal = system: UO-31 renal
BT-549 breast = system: BT-549 breast
NCI/ADR-RES ovarian = system: NCI/ADR-RES ovarian
SK-OV-3 ovarian = system: SK-OV-3 ovarian
CAKI-1 renal = system: CAKI-1 renal
DU-145 prostate = system: DU-145 prostate
HOP-92 NSCLC = system: HOP-92 NSCLC
IGROV1 ovarian = system: IGROV1 ovarian
M14 melanoma = system: M14 melanoma
SK-MEL-5 melanoma = system: SK-MEL-5 melanoma
SR leukemia = system: SR leukemia
SF-268 CNS = system: SF-268 CNS
786-0 renal = system: 786-0 renal
SW-620 colon = system: SW-620 colon
SF-539 CNS = system: SF-539 CNS
HCC-2998 colon = system: HCC-2998 colon
SN12C renal = system: SN12C renal
OVCAR-8 ovarian = system: OVCAR-8 ovarian
HT29 colon = system: HT29 colon
OVCAR-4 ovarian = system: OVCAR-4 ovarian

Measured: TGI

O=C1NC(O)CCN1C1CC(O)C(CO)O1 (centres undefined)
not listed: HT29 colon | OVCAR-4 ovarian
> 100 µM: all other assays above

Cc1ccc2c(=O)c(C(=O)N(CCO)CCO)c[nH]c2n1
not listed: SK-OV-3 ovarian | HOP-92 NSCLC | SR leukemia | SF-539 CNS | HCC-2998 colon
> 100 µM: all other assays above

Source: PubChem BioAssay (NCI)
